Like-named read-outs stand apart in the source and are kept apart here.
Key:
NaV1.5 [1] = molecular target: T1, NaV1.5 (Homo sapiens (Human), UniProt Q14524); assay: Sodium Influx Assay (Flux) NaV1.5
NaV1.1 = NaV1.1 (Homo sapiens (Human), UniProt P35498); assay: Sodium Influx Assay (Flux) NaV1.1; assay type: cell-based; details: Trex HEK293 cells, ANG2 dye, inhibition of sodium ion influx
NaV1.6 = NaV1.6 (Homo sapiens (Human), UniProt Q9UQD0); assay: Sodium Influx Assay (Flux) NaV1.6; assay type: cell-based; details: Trex HEK293 cells, ANG2 dye, inhibition of sodium ion influx
NaV1.5 [2] = molecular target: T1, NaV1.5
[3] = read-out: Flux NaV1.5 IC50, Trex HEK293 cells, ANG2 dye, inhibition of sodium ion influx

T1 sequence (Q14524 other isoform, or with tags, fused parts or gaps): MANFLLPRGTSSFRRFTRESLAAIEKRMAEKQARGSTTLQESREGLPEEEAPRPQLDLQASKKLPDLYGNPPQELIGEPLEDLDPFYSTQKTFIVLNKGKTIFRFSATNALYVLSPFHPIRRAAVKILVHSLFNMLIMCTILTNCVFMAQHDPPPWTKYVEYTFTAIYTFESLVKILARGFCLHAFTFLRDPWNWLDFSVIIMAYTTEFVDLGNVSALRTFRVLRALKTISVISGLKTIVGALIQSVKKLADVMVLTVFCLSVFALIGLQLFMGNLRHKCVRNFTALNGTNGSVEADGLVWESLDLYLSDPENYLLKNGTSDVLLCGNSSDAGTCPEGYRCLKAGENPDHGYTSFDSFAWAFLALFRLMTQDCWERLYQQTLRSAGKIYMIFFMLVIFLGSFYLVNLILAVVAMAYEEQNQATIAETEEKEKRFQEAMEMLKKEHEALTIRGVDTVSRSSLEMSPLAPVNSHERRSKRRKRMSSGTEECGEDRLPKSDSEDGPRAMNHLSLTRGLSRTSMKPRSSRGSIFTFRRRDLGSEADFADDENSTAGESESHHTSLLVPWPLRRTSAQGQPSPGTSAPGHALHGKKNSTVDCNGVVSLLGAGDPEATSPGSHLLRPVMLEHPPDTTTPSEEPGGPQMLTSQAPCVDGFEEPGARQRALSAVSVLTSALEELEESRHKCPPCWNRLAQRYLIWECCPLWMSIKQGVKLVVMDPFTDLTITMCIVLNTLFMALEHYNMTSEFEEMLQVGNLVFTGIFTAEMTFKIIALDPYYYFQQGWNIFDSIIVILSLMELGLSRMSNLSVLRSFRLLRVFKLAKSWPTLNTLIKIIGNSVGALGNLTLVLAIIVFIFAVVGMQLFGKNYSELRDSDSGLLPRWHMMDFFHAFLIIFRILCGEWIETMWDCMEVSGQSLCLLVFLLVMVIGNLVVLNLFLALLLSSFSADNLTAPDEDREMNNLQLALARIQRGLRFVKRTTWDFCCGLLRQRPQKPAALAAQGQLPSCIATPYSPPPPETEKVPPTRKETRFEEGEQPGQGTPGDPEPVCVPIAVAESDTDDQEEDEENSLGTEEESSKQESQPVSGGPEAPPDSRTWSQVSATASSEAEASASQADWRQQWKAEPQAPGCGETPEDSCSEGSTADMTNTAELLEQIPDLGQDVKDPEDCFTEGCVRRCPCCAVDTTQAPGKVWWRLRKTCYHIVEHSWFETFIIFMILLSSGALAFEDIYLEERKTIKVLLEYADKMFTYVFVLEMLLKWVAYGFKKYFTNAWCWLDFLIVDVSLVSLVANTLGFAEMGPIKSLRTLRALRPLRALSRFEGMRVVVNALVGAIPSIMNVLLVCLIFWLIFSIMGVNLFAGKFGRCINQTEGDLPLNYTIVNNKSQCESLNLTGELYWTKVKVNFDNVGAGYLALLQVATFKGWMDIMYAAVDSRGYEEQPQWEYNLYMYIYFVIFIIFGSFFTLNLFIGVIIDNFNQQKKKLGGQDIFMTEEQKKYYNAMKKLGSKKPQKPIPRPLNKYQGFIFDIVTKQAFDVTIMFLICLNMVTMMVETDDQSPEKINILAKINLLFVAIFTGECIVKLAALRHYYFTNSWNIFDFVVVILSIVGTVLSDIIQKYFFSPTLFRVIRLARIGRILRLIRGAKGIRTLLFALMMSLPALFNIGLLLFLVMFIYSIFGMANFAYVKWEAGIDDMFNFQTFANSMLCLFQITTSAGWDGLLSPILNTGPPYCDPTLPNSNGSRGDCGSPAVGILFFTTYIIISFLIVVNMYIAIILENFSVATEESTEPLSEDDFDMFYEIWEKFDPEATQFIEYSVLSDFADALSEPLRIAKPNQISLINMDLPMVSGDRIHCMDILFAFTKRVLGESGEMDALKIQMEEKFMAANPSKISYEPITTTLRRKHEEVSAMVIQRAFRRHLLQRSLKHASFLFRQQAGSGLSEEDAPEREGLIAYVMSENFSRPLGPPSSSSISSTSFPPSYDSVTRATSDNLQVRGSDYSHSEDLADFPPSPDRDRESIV

SMILES | IC50 (NaV1.5 [1]; [3]) | IC50 (NaV1.1) | IC50 (NaV1.6) | IC50 (NaV1.5 [2]) | IC50 (NaV1.5 [1])
COc1ccc(F)c(CNc2cc(F)c(S(=O)(=O)Nc3cscn3)cc2Cl)c1CN(C)C(C)C [Example 17, 5-chloro-2-fluoro-4-((6-fluoro-2-((isopropyl(methyl)amino)methyl)-3-methoxybenzyl)amino)-N-(thiazol-4-yl)benzenesulfonamide 2,2,2-trifluoroacetate] | 16.3 µM | > 30 µM | 0.012 µM | – | –
Cc1c(NCc2c(F)cccc2CN2C3CCC2CC3)cc(F)c(S(=O)(=O)Nc2ccon2)c1F [Example 4, 4-((2-((7-azabicyclo[2.2.1]heptan-7-yl)methyl)-6-fluorobenzyl)amino)-2,6-difluoro-N-(isoxazol-3-yl)-3-methylbenzenesulfonamide] | – | 17 µM | 0.047 µM | > 30 µM | –
Cc1c(NCc2c(F)cccc2CN2C3CCC2CC3)ccc(S(=O)(=O)Nc2ccon2)c1F [Example 5, 4-((2-((7-azabicyclo[2.2.1]heptan-7-yl)methyl)-6-fluorobenzyl)amino)-2-fluoro-N-(isoxazol-3-yl)-3-methylbenzenesulfonamide 2,2,2-trifluoroacetate] | – | > 30 µM | 0.617 µM | > 30 µM | –
CC(C)Oc1ccc(F)c(CNc2cc(F)c(S(=O)(=O)Nc3cscn3)c(F)c2)c1CN(C)C(C)C [Example 8, 2,6-difluoro-4-((6-fluoro-3-isopropoxy-2-((isopropyl(methyl)amino)methyl)benzyl)amino)-N-(thiazol-4-yl)benzenesulfonamide] | 11.1 µM | 28 µM | 0.026 µM | – | –
C[C@@H](c1c(F)ccc(F)c1CNc1cc(F)c(S(=O)(=O)Nc2cscn2)c(F)c1)N1C2CCC1CC2 (single isomer, unassigned) [Example 15a] | – | > 30 µM | 0.53 µM | – | > 30 µM
COc1ccc(F)c(CNc2cc(F)c(S(=O)(=O)Nc3cscn3)c(F)c2)c1CN(C)C(C)C [Example 2, 2,6-difluoro-4-((6-fluoro-2-((isopropyl(methyl)amino)methyl)-3-methoxybenzyl)amino)-N-(thiazol-4-yl)benzenesulfonamide] | 28.3 µM | 27.5 µM | 0.027 µM | – | –
O=S(=O)(Nc1cscn1)c1ccc(NCc2c(F)cccc2CN2C3CCC2CC3)c(Cl)c1F [Example 6, 4-((2-((7-azabicyclo[2.2.1]heptan-7-yl)methyl)-6-fluorobenzyl)amino)-3-chloro-2-fluoro-N-(thiazol-4-yl)benzenesulfonamide 2,2,2-trifluoroacetate] | – | 5.23 µM | 0.095 µM | 15.3 µM | –
Cc1c(NCc2c(F)cccc2CN2C3CCC2CC3)ccc(S(=O)(=O)Nc2cscn2)c1F [Example 7, 4-((2-((7-azabicyclo[2.2.1]heptan-7-yl)methyl)-6-fluorobenzyl)amino)-2-fluoro-3-methyl-N-(thiazol-4-yl)benzenesulfonamide 2,2,2-trifluoroacetate] | – | 7.44 µM | 0.181 µM | 21.3 µM | –
COc1ccc(F)c(CNc2cc(F)c(S(=O)(=O)Nc3cscn3)c(F)c2)c1CN1C2CCC1CC2 [Example 11, 4-((2-((7-azabicyclo[2.2.1]heptan-7-yl)methyl)-6-fluoro-3-methoxybenzyl)amino)-2,6-difluoro-N-(thiazol-4-yl)benzenesulfonamide 2,2,2-trifluoroacetate] | – | 5.91 µM | 0.002 µM | 27.5 µM | –
COc1ccc(F)c(CNc2ccc(S(=O)(=O)Nc3cscn3)c(F)c2F)c1CN(C)C(C)C [Example 16, 2,3-difluoro-4-((6-fluoro-2-((isopropyl(methyl)amino)methyl)-3-methoxybenzyl)amino)-N-(thiazol-4-yl)benzenesulfonamide] | 9.46 µM | > 30 µM | 0.031 µM | – | –
COc1ccc(F)c(CNc2ccc(S(=O)(=O)Nc3cscn3)c(F)c2F)c1CN1C2CCC1CC2 [Example 12, 4-((2-((7-azabicyclo[2.2.1]heptan-7-yl)methyl)-6-fluoro-3-methoxybenzyl)amino)-2,3-difluoro-N-(thiazol-4-yl)benzenesulfonamide 2,2,2-trifluoroacetate] | – | > 30 µM | 0.054 µM | > 30 µM | –
COc1ccc(F)c(CNc2cc(F)c(S(=O)(=O)Nc3cscn3)cc2C)c1CN(C)C(C)C [Example 18, 2-fluoro-4-((6-fluoro-2-((isopropyl(methyl)amino)methyl)-3-methoxybenzyl)amino)-5-methyl-N-(thiazol-4-yl)benzenesulfonamide 2,2,2-trifluoroacetate] | 11.8 µM | > 30 µM | 0.016 µM | – | –
C[C@H](c1c(F)ccc(F)c1CNc1cc(F)c(S(=O)(=O)Nc2cscn2)c(F)c1)N1C2CCC1CC2 (single isomer, unassigned) [Example 15b] | – | > 30 µM | 0.821 µM | – | > 30 µM
O=S(=O)(Nc1cscn1)c1ccc(NCc2c(F)cccc2CN2C3CCC2CC3)c(F)c1F [Example 3, 4-((2-((7-azabicyclo[2.2.1]heptan-7-yl)methyl)-6-fluorobenzyl)amino)-2,3-difluoro-N-(thiazol-4-yl)benzenesulfonamide] | – | > 30 µM | 0.142 µM | > 30 µM | –
CC(c1c(F)ccc(F)c1CNc1cc(F)c(S(=O)(=O)Nc2cscn2)c(F)c1)N1C2CCC1CC2 (stereo not drawn) [Example 14, 4-((2-(1-(7-azabicyclo[2.2.1]heptan-7-yl)ethyl)-3,6-difluorobenzyl)amino)-2,6-difluoro-N-(thiazol-4-yl)benzenesulfonamide 2,2,2-trifluoroacetate] | – | > 30 µM | 0.653 µM | 12.8 µM | –
O=S(=O)(Nc1ccsn1)c1ccc(NCc2c(F)cccc2CN2C3CCC2CC3)c(F)c1F [Example 13, 4-((2-((7-azabicyclo[2.2.1]heptan-7-yl)methyl)-6-fluorobenzyl)amino)-2,3-difluoro-N-(isothiazol-3-yl)benzenesulfonamide 2,2,2-trifluoroacetate] | – | 23.7 µM | 0.27 µM | > 30 µM | –
O=S(=O)(Nc1ccsn1)c1c(F)cc(NCc2c(F)cccc2CN2C3CCC2CC3)cc1F [Example 1, 4-((2-((7-azabicyclo[2.2.1]heptan-7-yl)methyl)-6-fluorobenzyl)amino)-2,6-difluoro-N-(isothiazol-3-yl)benzenesulfonamide] | – | 9.6 µM | 0.015 µM | > 30 µM | –
O=S(=O)(Nc1cscn1)c1c(F)cc(NCc2c(F)ccc(F)c2CN2C3CCC2CC3)cc1F [Example 10, 4-((2-((7-azabicyclo[2.2.1]heptan-7-yl)methyl)-3,6-difluorobenzyl)amino)-2,6-difluoro-N-(thiazol-4-yl)benzenesulfonamide] | – | 7.93 µM | 0.028 µM | 25.4 µM | –
O=S(=O)(Nc1cscn1)c1c(F)cc(NCc2c(F)cccc2CN2C3CCC2CC3)cc1F [Example 9, 4-((2-((7-azabicyclo[2.2.1]heptan-7-yl)methyl)-6-fluorobenzyl)amino)-2,6-difluoro-N-(thiazol-4-yl)benzenesulfonamide 2,2,2-trifluoroacetate] | – | 7.84 µM | 0.026 µM | 20.4 µM | –

From patent US10745392B2, “Benzenesulfonamide compounds and their use as therapeutic agents” (Xenon Pharmaceuticals Inc., priority 2018, dated 2020)
